Test results from patent US8431556B2, “C-21-keto lupane derivatives preparation and use thereof” (Vertex Pharmaceuticals Incorporated, priority 2008, dated 2013).
Read-outs that look alike come from different tables or passages of the source.

Test system: HIV-1 (HIVIIIB)
Experiment: HIV-1 replication in MT2 cell line with and without 30% human serum (viral RT activity in supernatant)
Assay type: cell-based
Conditions: Human immunodeficiency virus 1, MT2, MT-2 cells, average IC50 if tested more than once
Experimental: HIV-1 Replication in MT2 cell line with and without 30% human serum: The cells are infected at a Multiciplicity of Infection (MOI) of 0.5 for 3 h and then washed twice with complete media to remove residual virus. Cells are then resuspended at 0.5×10^6/ml in complete medium (RPMI, 10% FBS, 1% sodium pyruvate), and seeded into 96-well plates (6.25×10^4/well). The cells are cultured in the presence or absence of various concentrations of test compounds in serial dilutions for 3 days at 37° C. The test compounds are serially diluted in complete medium supplemented or not with 30% human serum. After 3 days, 100 μL of cultured medium with cells are replaced with 120 μL of freshly diluted test compounds in complete medium containing or not 30% Human serum. The level of HIV-1 replication is determined at days 5 after infection by the presence of viral RT activity in harvested supernatant fluid. The IC50 and IC90 values for the virus replication are determined by using GRAPHPAD PRISM software.
The IC50 of the compounds tested in accordance with the HIV replication activity assay MT-2 (HIVIIIB) are represented in Table 4 (without HS) and Table 5 (with 30% HS)

[1] = with 30% human serum, read-out: MT-2 (HIVIIIB) with 30% HS IC50 range
[2] = without HS, read-out: MT-2 (HIVIIIB) IC50 range

In the case of `CC(C)C1=C2C3CCC4[C@@]5(C)CC[C@H](OC(=O)CC(C)(C)C(=O)O)C(C)(C)C5CC[C@@]4(C)[C@]3(C)CC[C@@]2(C(=O)Nc2ccc(F)cc2)CC1=O` (stereo partly drawn) [9-88, 3β-O-(3′,3′-Dimethylsuccinyl)-21-oxolup-18-en-28-oic acid N-4-fluoro-phen-1-yl acetamide], the IC50 [1] is reported as under 0.199 µM.
Compound `CC(C)C1=C2[C@H]3CC[C@@H]4[C@@]5(C)CC[C@H](OC(=O)CC(C)(C)C(=O)O)C(C)(C)[C@@H]5CC[C@@]4(C)[C@]3(C)CC[C@@]2(C(=O)Nc2ccncn2)CC1=O` [9-64, 3β-O-(3′,3′-Dimethylsuccinyl)-21-oxolup-18-en-28-oic acid N-pyrimidin-4-yl-acetamide] has an IC50 [1] of under 0.199 µM.
In the case of `CC(C)C1=C2C3CCC4[C@@]5(C)CC[C@H](OC(=O)CC(C)(C)C(=O)O)C(C)(C)C5CC[C@@]4(C)[C@]3(C)CC[C@@]2(C(=O)NCC2CCC(F)(F)CC2)CC1=O` (stereo partly drawn) [9-93, 3β-O-(3′,3′-Dimethylsuccinyl)-21-oxolup-18-en-28-oic acid N-(4,4-difluoro-cyclohexylmethyl)-acetamide], the IC50 [1] is reported as under 0.199 µM.
`CC(C)NC(=O)[C@@]12CC[C@]3(C)[C@H](CC[C@@H]4[C@@]5(C)CC[C@H](OC(=O)CC(C)(C)C(=O)O)C(C)(C)[C@@H]5CC[C@]43C)C1=C(C(C)C)C(=O)C2` [9-3, 3β-O-(3′,3′-Dimethylsuccinyl)-21-oxolup-18-en-28-oic acid N-isopropylamide] was tested, and the IC50 [2] was under 0.199 µM.
Compound `CC(C)C1=C2[C@H]3CC[C@@H]4[C@@]5(C)CC[C@H](OC(=O)CC(C)(C)C(=O)O)C(C)(C)[C@@H]5CC[C@@]4(C)[C@]3(C)CC[C@@]2(C(=O)Nc2ncccn2)CC1=O` [9-38, 3β-O-(3′,3′-Dimethylsuccinyl)-21-oxolup-18-en-28-oic acid N-pyrimidin-2-yl-acetamide] has an IC50 [1] of under 0.199 µM.
In the case of `COc1ccc(CCNC(=O)[C@@]23CC[C@]4(C)[C@H](CC[C@@H]5[C@@]6(C)CC[C@H](OC(=O)CC(C)(C)C(=O)O)C(C)(C)[C@@H]6CC[C@]54C)C2=C(C(C)C)C(=O)C3)cc1` [9-19, 3β-O-(3′,3′-Dimethylsuccinyl)-21-oxolup-18-en-28-oic acid N-[2-(4-methoxy-phenyl)-ethyl]-acetamide], the IC50 [2] is reported as under 0.199 µM.
In the case of `CC(C)C1=C2[C@H]3CC[C@@H]4[C@@]5(C)CC[C@H](OC(=O)CC(C)(C)C(=O)O)C(C)(C)[C@@H]5CC[C@@]4(C)[C@]3(C)CC[C@@]2(C(=O)NCC(F)(F)F)CC1=O` [9-71, 3β-O-(3′,3′-Dimethylsuccinyl)-21-oxolup-18-en-28-oic acid N-(2,2,2-trifluoro-ethyl)-acetamide], the IC50 [1] is reported as under 0.199 µM.
In the case of `CC(C)C1=C2[C@H]3CC[C@@H]4[C@@]5(C)CC[C@H](OC(=O)CC(C)(C)C(=O)O)C(C)(C)[C@@H]5CC[C@@]4(C)[C@]3(C)CC[C@@]2(C(=O)NC2CCCCC2)CC1=O` [9-4, 3β-O-(3′,3′-Dimethylsuccinyl)-21-oxolup-18-en-28-oic acid N-cyclohexylamide], the IC50 [2] is reported as under 0.199 µM.
`CC(=O)NC1CCN(C(=O)[C@@]23CC[C@]4(C)[C@H](CC[C@@H]5[C@@]6(C)CC[C@H](OC(=O)CC(C)(C)C(=O)O)C(C)(C)[C@@H]6CC[C@]54C)C2=C(C(C)C)C(=O)C3)CC1` [9-43, 3β-O-(3′,3′-Dimethylsuccinyl)-21-oxolup-18-en-28-oic acid N-(4-acetylamino-1-piperidine)-acetamide] was tested, and the IC50 [1] was under 0.199 µM.
For `CC(C)C1=C2[C@H]3CC[C@@H]4[C@@]5(C)CC[C@H](OC(=O)CC(C)(C)C(=O)O)C(C)(C)[C@@H]5CC[C@@]4(C)[C@]3(C)CC[C@@]2(C(=O)N2CCC(N)CC2)CC1=O` [9-42], the IC50 [1] was under 0.199 µM.
With `CC(C)C1=C2C3CCC4[C@@]5(C)CC[C@H](OC(=O)CC(C)(C)C(=O)O)C(C)(C)C5CC[C@@]4(C)[C@]3(C)CC[C@@]2(C(=O)NC[C@H]2CCCN2C)CC1=O` (stereo partly drawn) [9-83, 3β-O-(3′,3′-Dimethylsuccinyl)-21-oxolup-18-en-28-oic acid N-((R)-1-methyl-pyrrolidin-2-ylmethyl)-acetamide] the IC50 [1] was under 0.199 µM.
In the case of `Cc1nnc(NC(=O)[C@@]23CC[C@]4(C)[C@H](CC[C@@H]5[C@@]6(C)CC[C@H](OC(=O)CC(C)(C)C(=O)O)C(C)(C)[C@@H]6CC[C@]54C)C2=C(C(C)C)C(=O)C3)o1` [9-62, 3β-O-(3′,3′-Dimethylsuccinyl)-21-oxolup-18-en-28-oic acid N-(5-methyl-[1,3,4]oxadiazol-2-yl)-acetamide], the IC50 [1] is reported as 0.2 to 0.999 µM.
For `CC(C)C1=C2C3CCC4[C@@]5(C)CC[C@H](OC(=O)CC(C)(C)C(=O)O)C(C)(C)C5CC[C@@]4(C)[C@]3(C)CC[C@@]2(C(=O)Nc2nnn(C)n2)CC1=O` (stereo partly drawn) [9-90, 3β-O-(3′,3′-Dimethylsuccinyl)-21-oxolup-18-en-28-oic acid N-(1-methyl-1H-tetrazol-3-yl)-acetamide], the IC50 [1] was under 0.199 µM.
`CC(C)C1=C2[C@H]3CC[C@@H]4[C@@]5(C)CC[C@H](OC(=O)CC(C)(C)C(=O)O)C(C)(C)[C@@H]5CC[C@@]4(C)[C@]3(C)CC[C@@]2(C(=O)N2CCC2)CC1=O` [9-70, 3β-O-(3′,3′-Dimethylsuccinyl)-21-oxolup-18-en-28-oic acid N-azetidine-1 acetamide] was tested, and the IC50 [1] was under 0.199 µM.
`CC(C)C1=C2C3CCC4[C@@]5(C)CC[C@H](OC(=O)CC(C)(C)C(=O)O)C(C)(C)C5CC[C@@]4(C)[C@]3(C)CC[C@@]2(C(=O)Nc2ccccc2Cl)CC1=O` (stereo partly drawn) [9-86, 3β-O-(3′,3′-Dimethylsuccinyl)-21-oxolup-18-en-28-oic acid N-2-chloro-phen-1-yl acetamide] gave an IC50 [1] of under 0.199 µM.
`CC(=O)N1CCC(NC(=O)[C@@]23CC[C@]4(C)[C@H](CC[C@@H]5[C@@]6(C)CC[C@H](OC(=O)CC(C)(C)C(=O)O)C(C)(C)[C@@H]6CC[C@]54C)C2=C(C(C)C)C(=O)C3)CC1` [9-32, 3β-O-(3′,3′-Dimethylsuccinyl)-21-oxolup-18-en-28-oic acid N-(4-amino-N-1-acetyl-piperidine)-acetamide] showed an IC50 [1] of under 0.199 µM.
Work on `CC(C)C1=C2[C@H]3CC[C@@H]4[C@@]5(C)CC[C@H](OC(=O)CC(C)(C)C(=O)O)C(C)(C)[C@@H]5CC[C@@]4(C)[C@]3(C)CC[C@@]2(C(=O)N2CCC(NC(=O)OC(C)(C)C)CC2)CC1=O` [9-41, 3β-O-(3′,3′-Dimethylsuccinyl)-21-oxolup-18-en-28-oic acid N-(4-aminocarboxylic acid tert-butyl-ester-1-piperidine)-acetamide] yielded an IC50 [1] of under 0.199 µM.
Compound `CC(C)C1=C2[C@H]3CC[C@@H]4[C@@]5(C)CC[C@H](OC(=O)CC(C)(C)C(=O)O)C(C)(C)[C@@H]5CC[C@@]4(C)[C@]3(C)CC[C@@]2(C(=O)N2CCC(N(C)C)CC2)CC1=O` [9-74, 3β-O-(3′,3′-Dimethylsuccinyl)-21-oxolup-18-en-28-oic acid N-(4-dimethylamino-piperidin-1-yl)-acetamide] has an IC50 [1] of under 0.199 µM.
Compound `CC(C)C1=C2C3CCC4[C@@]5(C)CC[C@H](OC(=O)CC(C)(C)C(=O)O)C(C)(C)C5CC[C@@]4(C)[C@]3(C)CC[C@@]2(C(=O)NC[C@@H]2CCCN2C)CC1=O` (stereo partly drawn) [9-84, 3β-O-(3′,3′-Dimethylsuccinyl)-21-oxolup-18-en-28-oic acid N-((S)-1-methyl-pyrrolidin-2-ylmethyl)-acetamide] has an IC50 [1] of under 0.199 µM.
In the case of `CC(C)NC(=O)N1CCN(C(=O)[C@@]23CC[C@]4(C)[C@H](CC[C@@H]5[C@@]6(C)CC[C@H](OC(=O)CC(C)(C)C(=O)O)C(C)(C)[C@@H]6CC[C@]54C)C2=C(C(C)C)C(=O)C3)CC1` [9-39, 3β-O-(3′,3′-Dimethylsuccinyl)-21-oxolup-18-en-28-oic acid N-(4-N′-isopropylureido-1-piperazine)-acetamide], the IC50 [1] is reported as under 0.199 µM.
